In US20070059785A1, “Biomarkers in cancer” (SMITHKLINE BEECHAM CORPORATION, priority 2003, published 2007):
Entries after “also recorded” stand apart in the source; their conditions may differ. Where two headings read alike, the source gives them in different places.

Columns and labels:
AKT [1] = details: S1 cells; not reversed by EGF; data of PCT/US03/12739; cited from earlier work
HN5 cells [2] = details: Rusnak et al.; cited from earlier work
cyclin D1 = test: Clinical tumor biopsies, cyclin D1 by quantitative IHC
Text: All subjects provided written informed consent.
“Cyclin D1” refers to total cyclin D1 present as measured by immunohistochemistry and reported by OD;

erbB2 [3] = molecular target: T1, erbB2 (Homo sapiens, UniProt P04626); test: IP Western/Western blot of p-Tyr/erbB2 and total erbB2 in Hb4a cells; format: cell-based; parameters: endogenous in cells; host or cells: Hb4a; details: 5 μM, 72 h, not reversed by EGF
T1 sequence (P04626 23-1255): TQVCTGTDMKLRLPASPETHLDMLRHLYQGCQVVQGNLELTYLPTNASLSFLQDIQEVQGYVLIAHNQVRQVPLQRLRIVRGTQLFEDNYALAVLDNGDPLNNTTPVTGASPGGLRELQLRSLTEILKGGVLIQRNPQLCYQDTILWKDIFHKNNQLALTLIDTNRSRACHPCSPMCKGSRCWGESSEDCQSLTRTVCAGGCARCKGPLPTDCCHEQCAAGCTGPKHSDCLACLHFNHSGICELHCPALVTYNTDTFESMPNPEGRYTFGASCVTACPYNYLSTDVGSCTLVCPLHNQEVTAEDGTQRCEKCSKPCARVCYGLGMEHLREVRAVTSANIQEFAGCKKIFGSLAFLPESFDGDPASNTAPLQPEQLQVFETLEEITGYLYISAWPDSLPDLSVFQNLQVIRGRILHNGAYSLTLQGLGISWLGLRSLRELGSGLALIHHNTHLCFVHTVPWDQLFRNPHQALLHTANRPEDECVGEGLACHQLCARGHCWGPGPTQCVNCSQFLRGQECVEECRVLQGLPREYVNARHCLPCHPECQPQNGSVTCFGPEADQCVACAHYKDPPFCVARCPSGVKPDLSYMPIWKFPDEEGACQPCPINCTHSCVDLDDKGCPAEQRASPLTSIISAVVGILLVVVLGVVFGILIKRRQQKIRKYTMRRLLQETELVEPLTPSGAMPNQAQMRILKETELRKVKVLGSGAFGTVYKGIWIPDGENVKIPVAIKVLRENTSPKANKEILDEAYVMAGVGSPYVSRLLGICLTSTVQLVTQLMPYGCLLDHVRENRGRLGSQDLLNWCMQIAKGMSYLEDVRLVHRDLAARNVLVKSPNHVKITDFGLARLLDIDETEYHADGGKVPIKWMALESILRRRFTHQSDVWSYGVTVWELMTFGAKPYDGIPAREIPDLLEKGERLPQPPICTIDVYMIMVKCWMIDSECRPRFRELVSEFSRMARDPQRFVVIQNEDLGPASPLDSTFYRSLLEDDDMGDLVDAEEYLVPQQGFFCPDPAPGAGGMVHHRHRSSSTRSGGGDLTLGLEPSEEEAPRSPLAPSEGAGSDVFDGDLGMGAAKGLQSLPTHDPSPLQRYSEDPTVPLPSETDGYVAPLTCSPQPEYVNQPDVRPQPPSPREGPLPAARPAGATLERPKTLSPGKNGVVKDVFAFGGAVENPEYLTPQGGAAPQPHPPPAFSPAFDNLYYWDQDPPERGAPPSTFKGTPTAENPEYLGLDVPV
Procedure: (§1) The EGFR overexpressing LICR-LON-HN5 head and neck carcinoma cell line, HN5, was kindly provided by Helmout Modjtahedi at the Institute of Cancer Research, Surrey, U.K.
Protein concentrations were determined using a modification of the Bradford method (Bio-Rad Laboratory).
For IP Western blots, equivalent amounts of protein were precleared with Protein G Plus/Protein A agarose overnight at 4° C. Precleared lysates were then incubated overnight at 4° C. with specific antibodies. Immune complexes were precipitated with Protein G Plus/Protein A agarose beads, washed in RIPA buffer and then boiled in sample loading buffer. Steady state levels of total Erk1/2 and activated Erk1/2 (p-Erk) as well as total AKT protein and activated AKT (p-AKT) protein were assessed by Western blot. […] Proteins were transferred to Immobilon-P or nitrocellulose membranes. Efficiency and equal loading of proteins was evaluated by Ponceau S staining. Membranes were blocked for 1 hr in TBS (25 mM Tris-HCl, pH 7.4, 150 mM NaCl, 2.7 mM KCl) containing 4% (w/v) lowfat milk or 3% BSA (w/v). Membranes were then probed with specific antibodies recognizing target proteins. […]
(§2) Steady state levels of activated erbB2 and EGFR (p-Tyr/ErbB2 and p-Tyr/EGFR); total erbB2 and EGFR; activated Erk1/2 (p-Erk1/2) and total Erk1/2 were assessed by either IP Western or Western blot.

erbB2 [4] = molecular target: T1, erbB2; test: Tumor xenografts, activated and total erbB2 by quantitative IHC; format: in vivo, mice; details: HN5 and BT474 xenografts, 200 mg/kg oral once daily
erbB2 [5] = molecular target: T1, erbB2; test: BT474 tumor xenograft, p-Tyr/ErbB-2 and total ErbB-2 by Western blot; format: in vivo, C.B-17 SCID mice; details: 100 mg/kg
Procedure: (§3) The tumor implant was removed after the final treatment dose. Activated receptor (p-Tyr/ErbB-2) was assessed by IP Western blot and total ErbB-2 steady state protein (ErbB-2), total Erk1/2 and activated Erk1/2 (p-Erk1/2) were assessed by Western blot loading equal amounts of protein from tumor biopsies.
(§4) Cell extracts were prepared by homogenization as described for HN5 xenografts.
(§5) BT474 tumor xenografts (subcutaneous) were established as described in Materials and Methods. […] Controls were treated with vehicle alone. […] Activated receptor (p-Tyr/ErbB-2) was assessed by IP Western blot and total ErbB-2 steady state protein (ErbB-2), total Erk1/2 and activated Erk1/2 (p-Erk1/2) were assessed by Western blot loading equal amounts of protein from tumor biopsies.

HN5 cells [6] = test: Apoptosis and growth of HN5 cells; format: cell-based, human; details: data not shown
Heregulin = test: Clinical tumor biopsies, heregulin by IHC; details: patient 425, inflammatory breast cancer, 1200 mg/d ditosylate salt, day 21 (day 0: 5)
Procedure: Erk1/2 (1:1200), erbB3 (1:10), heregulin (1:25), and TGFα (1:20) were also immunostained using the BenchMark™ with I-VIEW detection chemistry.
“Heregulin”, a ligand that stimulates erbB3 (HER3) and HER4, was measured by immunohistochemistry and reported in OD.

Erk1/2 [7] = test: BT474 tumor xenograft, p-Erk1/2 and total Erk1/2 by Western blot; format: in vivo, C.B-17 SCID mice
Procedure: as §3, §4, §5

Erk1/2 [8] = test: Western blot of p-Erk1/2 in Hb4a cells; format: cell-based, human; details: 5 μM, 72 h, not reversed by EGF
Procedure: as §1
(§6) For IP Western blots, equivalent amounts of protein were precleared with Protein G Plus/Protein A agarose overnight at 4° C. Precleared lysates were then incubated overnight at 4° C. with specific antibodies. Immune complexes were precipitated with Protein G Plus/Protein A agarose beads, washed in RIPA buffer and then boiled in sample loading buffer. Steady state levels of total Erk1/2 and activated Erk1/2 (p-Erk) as well as total AKT protein and activated AKT (p-AKT) protein were assessed by Western blot. […] Proteins were transferred to Immobilon-P or nitrocellulose membranes. Efficiency and equal loading of proteins was evaluated by Ponceau S staining. Membranes were blocked for 1 hr in TBS (25 mM Tris-HCl, pH 7.4, 150 mM NaCl, 2.7 mM KCl) containing 4% (w/v) lowfat milk or 3% BSA (w/v). Membranes were then probed with specific antibodies recognizing target proteins. Proteins were visualized with the SUPERSIGNAL® West Femto Maximum sensitivity substrate kit (Pierce).
as §2

S1 cells = test: Cell cycle analysis (propidium iodide, flow cytometry), apoptosis of S1 cells; details: 5 μM, 72 h
Procedure: The percentage of cells in G1, S phase, and G2/M are indicated. The sub-G1 peak represents the apoptotic fraction.
Cells were harvested and fixed with 70% ethanol in PBS. Cell pellets were then resuspended in 0.5 ml PBS containing propidium iodide (50 μg/ml) and DNase-free RNase (100 μg/ml). Cell cycle analysis was performed using a BD Flow Cytometer (Becton Dickinson, San Jose, Calif., USA).
After 72 h, cell cycle analysis was performed using propidium iodide staining and flow cytometry as described in Materials and methods.

p-ERK = test: Antibody staining of p-ERK localization in MCF7/erbB2 cells; format: cell-based, human; details: 10 uM, results not shown
pAKT = test: Confocal microscopy of AU-565 cells exposed to epigen; format: cell-based, human; details: epigen and GW572016, confocal microscopy, results not shown
Text: In response to NDF (Neu Differentiating Factor or Heregulin), these cells divide and multiply. AU565 cells were stained with antibodies to show total ERK, or stained with antibodies to show phosphorylated ERK (p-Erk).

Erk1/2 [9] = test: Tumor xenografts, phospho-Erk1/2 and total Erk1/2 by quantitative IHC; format: in vivo, mice; details: data not shown
Text: DAB (Dako) was used as the chromogen.
Inhibition of erbB2/EGFR p-tyr in turn led to the inhibition of downstream activated, phospho-Erk1/2.

solid tumors = test: Open-label clinical study, clinical response (RECIST); format: in vivo, human
AKT [10] = test: Western blot of p-AKT in HN5 cells; format: cell-based, human; details: HN5, 5 μM, 24 h serum-free
Procedure: The erbB2 overexpressing human breast adenocarcinoma cell line, BT474, was obtained from the American Type Culture Collection (Rockville, M, USA). […] The EGFR overexpressing LICR-LON-HN5 head and neck carcinoma cell line, HN5, was kindly provided by Helmout Modjtahedi at the Institute of Cancer Research, Surrey, U.K.
as §6

Erk1/2 [11] = test: Clinical tumor biopsies, localization of total Erk1/2 by IHC; format: in vivo, human; details: patient 361, Day 21; baseline exclusively intra-nuclear; data not shown
Text: Upon activation, p-Erk1/2 relocates to the nucleus where it regulates transcription of a variety of genes involved in tumor growth, adhesion, and angiogenesis.

[12] = patients with >70% decrease in pERK index

CS(=O)(=O)CCNCc1ccc(-c2ccc3ncnc(Nc4ccc(OCc5cccc(F)c5)c(Cl)c4)c3c2)o1 [GW572016, N-{3-Chloro-4-[(3-fluorobenzyl)oxy]phenyl}-6-[5-({[2-(methylsulfonyl)ethyl]amino}methyl)-2-furyl]-4-quinazolinamine]
baseline phosphorylation of AKT (AKT [1]): inhibits
apoptosis (HN5 cells [2]): increased only slightly
reduction of cyclin D1 protein expression (cyclin D1; patient 361, 1200 mg/day, d 21): 90%
cyclin D1 OD (cyclin D1; patient 361, breast, 1200 mg/d, day 21 (day 0: 31)): 3 OD
cyclin D1 OD (cyclin D1; patient 362, adenocarcinoma unknown primary, 900 mg/d, day 21 (day 0: 26)): 37 OD
cyclin D1 OD (cyclin D1; patient 363, sarcoma, 500 mg/d, day 21 (day 0: 1)): 12 OD
reduction of cyclin D1 expression (cyclin D1; patient 364, 1600 mg/day, 21 days of therapy): 50%
cyclin D1 OD (cyclin D1; patient 364, head & neck, 1600 mg/d, day 21 (day 0: 66)): 33 OD
cyclin D1 OD (cyclin D1; patient 367, adenocarcinoma unknown primary, 650 mg/d, day 21 (day 0: 46)): 39 OD
cyclin D1 OD (cyclin D1; patient 369, head & neck, 1200 mg/d, day 21 (day 0: 39)): 22 OD
cyclin D1 OD (cyclin D1; patient 371, breast, 900 mg/d, day 21 (day 0: 42)): 10 OD
cyclin D1 OD (cyclin D1; patient 372, breast, 1200 mg/d, day 21 (day 0: 20)): 4 OD
Cyclin D1 (cyclin D1; patient 425, inflammatory breast cancer, 1200 mg/d ditosylate salt, day 21 (day 0: 19)): 12 OD
baseline amount of p-Tyr/erbB2 (erbB2 [3]): reduced; also recorded: decreased
erbB2 total protein (erbB2 [4]): neither EGFR nor erbB2 total protein was affected
activated erbB2 (erbB2 [4]; data not shown): inhibition
total erbB2 steady state protein levels (erbB2 [5]): without effects
apoptosis (HN5 cells [6]): significant apoptosis was not seen
cell growth (HN5 cells [6]): growth arrest
Heregulin (Heregulin): 8 OD
total Erk1/2 steady state protein levels (Erk1/2 [7]; 100 mg/kg): without effects
p-Erk1/2 (Erk1/2 [7]; 100 mg/kg oral twice daily, five doses): inhibited; also recorded: decreased
baseline amount of p-Erk (Erk1/2 [8]): reduced; also recorded: decreased
increase in percentage of apoptotic cells vs vehicle (S1 cells): 23 fold
percentage of cells in S phase and G2/M (S1 cells): concomitant reduction
percentage of apoptotic cells (sub-G1 peak) (S1 cells; vehicle control 2%): 46%
intensity of staining for p-ERK in the nucleus vs control cells (p-ERK): less
p-erk in the nuclei vs cells treated with epigen alone (pAKT): comparatively less
p-Erk1/2 levels (Erk1/2 [9]): reduced
total Erk1/2 protein (Erk1/2 [9]): unaffected
metastatic subcutaneous nodules (solid tumors; patient 361, metastatic breast cancer, 1200 mg/day, Day 21): almost all of their metastatic subcutaneous nodules had completely regressed
metastatic lymph node that was sequentially biopsied (solid tumors; patient 364, 1600 mg/day, Day 21): reduced in size
sensitivity of the patient's tumor to treatment (solid tumors; patient 425, inflammatory breast cancer, 1200 mg once per day): very sensitive
Partial Response at eight weeks (solid tumors; [12]): Partial Response: 2/5
Progression at eight weeks (solid tumors; [12]): one and Progression: 1/5
Stable Disease at eight weeks (solid tumors; [12]): Stable Disease: 2/5
Partial Response at eight weeks (solid tumors; patients with no decrease or increase in pERK index): Partial Response: 0/3
p-AKT (AKT [10]): inhibited p-AKT in HN5 cells, the effect was smaller than in erbB2-overexpressing tumor cells
localization of total Erk1/2 staining (Erk1/2 [11]): almost entirely cytoplasmic
